Laboratory results as given in the NIST ThermoML archive (doi:10.1021/acs.jced.7b00002).
Numbers after ± are expanded uncertainties.

Assay: xn = mol fraction of the nth substance listed
Settings: 97.6 kPa, Liquid; for viscosity: Capillary tube (Ostwald / Ubbelohde) method; for mass density: Vibrating tube method

CCCCCCCC[n+]1ccn(C)c1.[Cl-] [1-methyl-3-octylimidazolium chloride] + C[S+](C)[O-]
Settings	mass density [kg/m3]	viscosity [mPa·s]
303.15 K, x1 = 0.13	1067.88 ± 2.2	6.85
303.15 K, x1 = 0.253	1051.57 ± 2.1	24.14
303.15 K, x1 = 0.338	1042.77 ± 2.1	55.12
303.15 K, x1 = 0.439	1034.29 ± 2.1	143.43
303.15 K, x1 = 0.574	1025.26 ± 2.1	371.36
303.15 K, x1 = 0.75	1015.41 ± 2.1	1084.7
303.15 K, x1 = 0.862	1011.18 ± 2.1	3235.6
303.15 K, x1 = 1	1006.2 ± 2.2	7339.7
308.15 K, x1 = 0.13	1063.71 ± 2.1	6
308.15 K, x1 = 0.253	1047.84 ± 2.1	19.97
308.15 K, x1 = 0.338	1039.2 ± 2.1	43.8
308.15 K, x1 = 0.439	1030.91 ± 2.1	107.7
308.15 K, x1 = 0.574	1022.09 ± 2.1	264.22
308.15 K, x1 = 0.75	1012.38 ± 2.1	742.47
308.15 K, x1 = 0.862	1008.24 ± 2.1	2150.9
308.15 K, x1 = 1	1003.33 ± 2.1	4272.9
313.15 K, x1 = 0.13	1059.55 ± 2.1	5.24
313.15 K, x1 = 0.253	1044.09 ± 2.1	16.54
313.15 K, x1 = 0.338	1035.65 ± 2.1	34.98
313.15 K, x1 = 0.439	1027.54 ± 2.1	82.42
313.15 K, x1 = 0.574	1018.92 ± 2.1	192.92
313.15 K, x1 = 0.75	1009.41 ± 2.1	508.33
313.15 K, x1 = 0.862	1005.31 ± 2.1	1404.4
313.15 K, x1 = 1	1000.48 ± 2.1	2766.9
318.15 K, x1 = 0.13	1055.41 ± 2.1	4.62
318.15 K, x1 = 0.253	1040.39 ± 2.1	13.89
318.15 K, x1 = 0.338	1032.11 ± 2.1	28.15
318.15 K, x1 = 0.439	1024.18 ± 2.1	63.95
318.15 K, x1 = 0.574	1015.75 ± 2.1	143.95
318.15 K, x1 = 0.75	1006.46 ± 2.1	363.38
318.15 K, x1 = 0.862	1002.4 ± 2.1	943.52
318.15 K, x1 = 1	997.64 ± 2.1	1788.6
323.15 K, x1 = 0.13	1051.26 ± 2.1	4.1
323.15 K, x1 = 0.253	1036.65 ± 2.1	11.8
323.15 K, x1 = 0.338	1028.58 ± 2.1	23.25
323.15 K, x1 = 0.439	1020.83 ± 2.1	50.83
323.15 K, x1 = 0.574	1012.58 ± 2.1	109.49
323.15 K, x1 = 0.75	1003.51 ± 2.1	264.93
323.15 K, x1 = 0.862	999.47 ± 2.1	653.9
323.15 K, x1 = 1	994.82 ± 2.1	1198.7
328.15 K, x1 = 0.13	1047.12 ± 2.1	3.67
328.15 K, x1 = 0.253	1032.95 ± 2.1	10.12
328.15 K, x1 = 0.338	1025.06 ± 2.1	19.36
328.15 K, x1 = 0.439	1017.51 ± 2.1	41.01
328.15 K, x1 = 0.574	1009.43 ± 2.1	84.97
328.15 K, x1 = 0.75	1000.56 ± 2.1	197.17
328.15 K, x1 = 0.862	996.58 ± 2.1	466.77
328.15 K, x1 = 1	992 ± 2.1	828.3
333.15 K, x1 = 0.13	1042.98 ± 2.1	3.31
333.15 K, x1 = 0.253	1029.24 ± 2.1	8.78
333.15 K, x1 = 0.338	1021.55 ± 2.1	16.31
333.15 K, x1 = 0.439	1014.19 ± 2.1	33.28
333.15 K, x1 = 0.574	1006.28 ± 2.1	67.04
333.15 K, x1 = 0.75	997.59 ± 2.1	149.71
333.15 K, x1 = 0.862	993.72 ± 2.1	338.65
333.15 K, x1 = 1	989.17 ± 2.1	588.69
338.15 K, x1 = 0.13	1038.85 ± 2.1	3
338.15 K, x1 = 0.253	1025.55 ± 2.1	7.66
338.15 K, x1 = 0.338	1018.05 ± 2.1	13.91
338.15 K, x1 = 0.439	1010.88 ± 2.1	27.38
338.15 K, x1 = 0.574	1003.15 ± 2.1	53.77
338.15 K, x1 = 0.75	994.64 ± 2.1	115.48
338.15 K, x1 = 0.862	990.88 ± 2.1	250.15
338.15 K, x1 = 1	986.38 ± 2.1	426.28
343.15 K, x1 = 0.13	1034.72 ± 2.1	2.72
343.15 K, x1 = 0.253	1021.86 ± 2.1	6.75
343.15 K, x1 = 0.338	1014.56 ± 2.1	11.95
343.15 K, x1 = 0.439	1007.59 ± 2.1	22.97
343.15 K, x1 = 0.574	1000.03 ± 2.1	43.6
343.15 K, x1 = 0.75	991.75 ± 2.1	90.8
343.15 K, x1 = 0.862	988.04 ± 2.1	189.55
343.15 K, x1 = 1	983.63 ± 2.1	316.66
348.15 K, x1 = 0.13	1030.6 ± 2.1	2.5
348.15 K, x1 = 0.253	1018.18 ± 2.1	5.98
348.15 K, x1 = 0.338	1011.07 ± 2.1	10.37
348.15 K, x1 = 0.439	1004.31 ± 2	19.28
348.15 K, x1 = 0.574	996.93 ± 2	35.76
348.15 K, x1 = 0.75	988.9 ± 2.1	72.27
348.15 K, x1 = 0.862	985.2 ± 2.1	145.53
348.15 K, x1 = 1	980.88 ± 2.1	237.14
353.15 K, x1 = 0.13	1026.47 ± 2.1	2.29
353.15 K, x1 = 0.253	1014.51 ± 2.1	5.34
353.15 K, x1 = 0.338	1007.6 ± 2	9.06
353.15 K, x1 = 0.439	1001.04 ± 2	16.49
353.15 K, x1 = 0.574	993.83 ± 2	29.9
353.15 K, x1 = 0.75	985.96 ± 2.1	58.87
353.15 K, x1 = 0.862	982.37 ± 2.1	113.93
353.15 K, x1 = 1	978.13 ± 2.1	181.41
